From BindingDB's records for doi:10.7270/Q2N014XN (Srmlsc, 2007)

Target: T1, Diphosphomevalonate decarboxylase (Streptococcus pneumoniae serotype 2 (strain D39 / NCTC 7466), UniProt A0A0H2ZN59)
T1 sequence (A0A0H2ZN59 whole entry): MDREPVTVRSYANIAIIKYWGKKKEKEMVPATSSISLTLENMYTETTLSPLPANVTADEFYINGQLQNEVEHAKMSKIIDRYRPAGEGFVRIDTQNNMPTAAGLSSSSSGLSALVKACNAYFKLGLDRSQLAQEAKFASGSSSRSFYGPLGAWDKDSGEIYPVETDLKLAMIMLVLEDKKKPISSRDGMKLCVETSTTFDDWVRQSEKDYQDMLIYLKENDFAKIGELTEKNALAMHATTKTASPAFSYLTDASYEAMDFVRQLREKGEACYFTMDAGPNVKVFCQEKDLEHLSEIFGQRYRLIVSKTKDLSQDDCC
Test: diphosphomevalonate decarboxylase inhibition dose curves – biochemical, PK/LDH-coupled NADH fluorescence, hexokinase coupling counter-screen, dose response (AID 550)

SMILES | IC50 [µM] | IC50 (inactive by the depositor's call) [µM]
CCCCCn1c(SCC#N)nc2cc(C(=O)NCC3CCCO3)ccc2c1=O (configuration not stated) [2-(cyanomethylsulfanyl)-4-oxidanylidene-N-(oxolan-2-ylmethyl)-3-pentyl-quinazoline-7-carboxamide] | > 10000 | 
Cc1cc(N2CCN(C3CCCC3)CC2)n2nc(C)c(-c3ccccc3)c2n1 [7-(4-cyclopentyl-1-piperazinyl)-2,5-dimethyl-3-phenylpyrazolo[1,5-a]pyrimidine] | > 10000 | 
CC(C)(O)P(C)(=O)c1ccccc1 (configuration not stated) [2-[methyl(phenyl)phosphoryl]-2-propanol] | > 10000 | 
CCOC(=O)c1c(CC(C)C)csc1NC=O [2-formamido-4-(2-methylpropyl)-3-thiophenecarboxylic acid ethyl ester] | > 10000 | 
CCOC(=O)c1sc2nc(SCC(=O)NCc3ccco3)n(Cc3ccccc3)c(=O)c2c1C [2-[[2-(2-furanylmethylamino)-2-oxoethyl]thio]-5-methyl-4-oxo-3-(phenylmethyl)-6-thieno[2,3-d]pyrimidinecarboxylic acid ethyl ester] | 84.7 | 
Cc1cc(C)c2c(=O)n(CC(=O)NCCCN3CCN(c4ccccc4F)CC3)sc2n1 [2-(4,6-dimethyl-3-oxidanylidene-[1,2]thiazolo[5,4-b]pyridin-2-yl)-N-[3-[4-(2-fluorophenyl)piperazin-1-yl]propyl]ethanamide] |  | 36.6
Cc1ccc2oc(=O)c3cnn(CC(=O)NC4CCN(Cc5ccccc5)CC4)c3c2c1 [2-(8-methyl-4-oxidanylidene-chromeno[4,3-c]pyrazol-1-yl)-N-[1-(phenylmethyl)piperidin-4-yl]ethanamide] | > 10000 | 
COc1ccc(-c2cc(C(F)(F)F)nc(SCCC(=O)N3CCN4CCCC4C3)n2)cc1 (configuration not stated) [1-(3,4,6,7,8,8a-hexahydro-1H-pyrrolo[1,2-a]pyrazin-2-yl)-3-[4-(4-methoxyphenyl)-6-(trifluoromethyl)pyrimidin-2-yl]sulfanyl-propan-1-one] | 376 | 
Cc1ccc(S(=O)(=O)c2cc3c(=O)n4ccccc4nc3n(CC3CCCO3)c2=N)cc1C (configuration not stated) [2-azanylidene-3-(3,4-dimethylphenyl)sulfonyl-1-(oxolan-2-ylmethyl)dipyrido[1,2-d:3',4'-f]pyrimidin-5-one] | 43.6 | 
O=c1c2ccccc2sn1-c1cc(S(=O)(=O)N2CCOCC2)ccc1N1CCOCC1 [2-(2-morpholin-4-yl-5-morpholin-4-ylsulfonyl-phenyl)-1,2-benzothiazol-3-one] | 15.4 | 
CC(NC(=O)c1cccc(N2CCCC2=O)c1)c1ccc2c(c1)OCCO2 (configuration not stated) [MLS000046772] | > 10000 | 
Cc1ccsc1C1C(C(=O)O)c2ccccc2C(=O)N1C (configuration not stated) [1-keto-2-methyl-3-(3-methyl-2-thienyl)-3,4-dihydroisoquinoline-4-carboxylic acid] | > 10000 | 
O=C(NCc1cccnc1)c1ccc2c(=O)n(CCCN3CCCC3=O)c(=S)[nH]c2c1 [4-oxidanylidene-3-[3-(2-oxidanylidenepyrrolidin-1-yl)propyl]-N-(pyridin-3-ylmethyl)-2-sulfanylidene-1H-quinazoline-7-carboxamide] | > 10000 | 
CCOC(=O)COc1ccc2nsnc2c1Cl [2-(4-chloropiazthiol-5-yl)oxyacetic acid ethyl ester] | > 10000 | 
CCOC(=O)c1c(C)[nH]c(C(=O)COC(=O)c2ccccc2NC(=O)c2ccco2)c1C | 62.8 | 
COc1ccc(-c2nsc3c(N4CCN(C(=O)c5ccco5)CC4)ncnc23)cc1 [2-furanyl-[4-[3-(4-methoxyphenyl)-7-isothiazolo[4,5-d]pyrimidinyl]-1-piperazinyl]methanone] | 131 | 
N#Cc1c(S)nc2c(c1-c1cccnc1)CCCC2 [SMR000104204] | 20.1 | 
CCCn1c(C)nc2c(c1=O)c1nc3ccccc3nc1n2-c1ccc2c(c1)OCCO2 [MLS000042026] | > 10000 | 
CCC(=O)Nc1nnc(Sc2ccc(N(C)C)cc2)s1 [MLS000109846] | > 10000 | 
COc1ccc(C2C3=C(OC(C)=O)c4ccccc4C3=Nc3c2c(=O)n(C)c(=O)n3C)cc1 (configuration not stated) [MLS000073247] | > 10000 | 
Cn1c(-c2ccc(N)cc2)nc2ccccc21 [4-(1-methyl-2-benzimidazolyl)aniline] | > 10000 | 

SMILES | IC50 [µM] | IC50 (inactive by the depositor's call) [µM]
CC1Cc2nc(SCC(=O)Nc3ccc4c(c3)OCO4)n(CCc3ccccc3)c(=O)c2S1 (configuration not stated) [MLS000101671] | > 10000 | 
Cc1ccc(S(=O)(=O)N2CCOCC(=O)NCCOCCNC(=O)COCC2)cc1 [16-(4-methylphenyl)sulfonyl-1,7,13-trioxa-4,10,16-triazacyclooctadecane-3,11-dione] | > 10000 | 
CC1CC(C)CN(CCCNC(=O)Cn2ncc3c(=O)oc4ccccc4c32)C1 (configuration not stated) [MLS000116997] | > 10000 | 
Cc1cc(-c2ccccc2)nc(N2CCC(C(=O)NC(C)C)CC2)n1 [1-(4-Methyl-6-phenyl-pyrimidin-2-yl)-piperidine-4-carboxylic acid isopropylamide] | 69.3 | 
Cc1cc(N2CCOCC2)c2c(N)c(Br)cc(C)c2n1 [(6-bromo-2,8-dimethyl-4-morpholino-5-quinolyl)amine] | > 10000 | 
O=C1CCC(C(=O)N(Cc2ccco2)C2(C(=O)NC3CCCC3)CCCCC2)N1 (configuration not stated) [MLS000090457] | > 10000 | 
CC(C)c1nc2oc3c(NCc4ccccn4)ncnc3c2c2c1COC(C)(C)C2 [MLS000084035] | 813 | 
COc1cc(C(=O)Nc2ccc3c(c2)OCO3)ccc1-n1cnnn1 [MLS000073665] | > 10000 | 
CC(C)(C)n1nnnc1C(c1cc2cc3c(cc2[nH]c1=O)OCO3)N1CCN(c2ccccc2)CC1 (configuration not stated) [7-[(1-tert-butyl-1,2,3,4-tetrazol-5-yl)-(4-phenylpiperazin-1-yl)methyl]-5H-[1,3]dioxolo[4,5-g]quinolin-6-one] | 57 | 
COc1cccc(Cn2c(=S)[nH]c3ccc(N4CCOCC4)cc3c2=O)c1 | 36.2 | 
CCOC(=O)Cc1csc(-n2sc3ccccc3c2=O)n1 [MLS000082162] | 7.58 | 
O=C(Nc1ccc2nn(-c3ccccc3)nc2c1)c1ccc(Br)o1 [5-bromanyl-N-(2-phenylbenzotriazol-5-yl)furan-2-carboxamide] | 32.6 | 
O=C(CSc1ncnc2c1cnn2-c1ccccc1)Nc1ccc2c(c1)OCO2 [MLS000041214] | > 10000 | 
CN1CCN(CCNC(=O)c2cc3c(=O)n(C)c4ccccc4c3n2C)CC1 [1,5-dimethyl-N-[2-(4-methyl-1-piperazinyl)ethyl]-4-oxo-2-pyrrolo[3,2-c]quinolinecarboxamide] | 751 | 
CCN(CC)c1nc2ccccc2n2cnnc12 | > 10000 | 
Cc1ccc(-n2sc3ccccc3c2=O)cc1S(=O)(=O)N1CCCCC1 [2-(4-methyl-3-piperidin-1-ylsulfonyl-phenyl)-1,2-benzothiazol-3-one] | 3.73 | 
COC(=O)c1[nH]c2ccc(Cl)cc2c1NC(=O)CCN1CCOCC1 [5-chloro-3-[[3-(4-morpholinyl)-1-oxopropyl]amino]-1H-indole-2-carboxylic acid methyl ester] | 149 | 
Cc1cc(O)cc(C)n1 [2,6-dimethyl-1H-pyridin-4-one] | > 10000 | 
CCOc1ccc(-c2nnc(-c3ccncc3)o2)cc1 [2-(4-ethoxyphenyl)-5-pyridin-4-yl-1,3,4-oxadiazole] | 52.9 | 
COCCCn1c(=S)[nH]c2ccc(N3CCOCC3)cc2c1=O [MLS000095418] | 26.7 | 
COc1cc2c(C#N)c(N3CCN(c4ccccc4OC)CC3)nc(N)c2c(N)n1 [1,8-diamino-6-methoxy-3-(4-(2-methoxyphenyl)piperazin-1-yl)-2,7-naphthyridine-4-carbonitrile] | > 10000 | 
